The subject of the assay is 309 bp/bisPNA-affibody. The assay is described as follows: EMSA, TNFα complex formation. The assay is classed as binding. Background: In EMSA bound probe runs differently from free probe, usually more slowly.

This is an account of results in paper PMC6172217, “A handheld platform for target protein detection and quantification using disposable nanopore strips” (Scientific Reports, 2018).

Take TNFα: the EMSA complex formation entry (309 bp/PNA-affibody + TNFα, 1 h room temperature, pH 7.4) was “full DNA/PNA-affibody/TNFα complex formation”. Besides, the “EMSA saturation, ratio TNFα to scaffold/bisPNA-affibody” value (band intensity appears to saturate) is no less than 3 X.
